Results on nine molecules are retold here after patent US20080160520A1, “Methods and Composition for Diagnosing and Treating Cancer” (priority 2006, published 2008).

Common to all, as to format: cell-based, S. cerevisiae
Experiment [1] deals with aneuploid yeast strains. To be noted: for colony formation of aneuploids on medium containing the agent: compared with wild-type cells, FIG. 13B, E, I. The text has this:
To determine whether the synthesis of proteins from the additional chromosomes and their presence in the cell represents an increased burden on the cell's protein production machinery, the ability of aneuploid strains to grow under conditions that interfere with transcription, protein synthesis and protein folding was examined.

Experiment [2] deals with YAC-bearing strains. As to conditions: YACs with human or mouse DNA inserts; FIG. 5B. The procedure: Strains (from the top): A11311, A16850, A17392, A17393, A17394, A13628, A17396, A17397, A16851.
The phenotypes shared by aneuploids might result from the mere presence of additional DNA or from the RNAs and proteins synthesized from these chromosomes. Thus, the effects of seven yeast artificial chromosomes (YACs) containing human or mouse DNA inserts ranging from approximately 350 kb to 1.6 MB in size were tested (Table 3).
The other phenotypes observed in aneuploids were not shared by the YAC-bearing strains. […] Progression through other cell cycle stages was not affected either as judged by DNA content analysis (FIGS. 5, C and D).

The test system of experiment [3] is cdc28-4 and cdc23-1 mutants. In words: Sensitivity of slow-proliferating cdc28-4 and cdc23-1 mutants to protein synthesis inhibitors. To be noted: mutants severely impaired in cell division even at 23° C.; FIGS. 4C and D.

Like-named read-outs stand apart in the source and are kept apart here. Where a SMILES comes first, the peptide text is derived from it. The star is where a group is joined. Cbz = O=C(OCc1ccccc1)*

Consider `CCCCNC(=O)n1c(NC(=O)OC)nc2ccccc21` [benomyl], for which the “sensitivity of aneuploid strains” value in experiment [1] (10 and 20 μg/ml, FIG. 13F) is given as “About half of the aneuploid strains analyzed exhibited increased sensitivity”. In the case of `CC[C@H]1/C=C/C=C/C[C@@H](C)[C@H](O)[C@@](C)(O)C(=O)[C@@H](C)[C@H](O)[C@@H](C)C(=O)[C@@H](C)[C@H](O)[C@@H](C)/C=C/C(=O)O[C@@H]2[C@H](C)[C@H](CC1)O[C@]1(CC[C@H](C)[C@H](C[C@@H](C)O)O1)[C@H]2C` [oligomycin], in experiment [1] (increasing concentrations, FIG. 13I), the “sensitivity of aneuploid strains” value is listed as “did not exhibit increased sensitivity”. For `C[C@@H]1C[C@@H]([C@H](O)CC2CC(=O)NC(=O)C2)C(=O)[C@@H](C)C1` [cycloheximide], in experiment [2], the “sensitivity of YAC-bearing strains” value is “did not exhibit increased sensitivity”. Besides, the “proliferation of aneuploid strains” value in experiment [1] (0.05 μg/ml, FIG. 4C) was “proliferation of most was impaired”. Moreover, the “proliferation of all aneuploid strains” value is recorded as “decreased proliferation” in experiment [1] (0.1 μg/ml and 0.2 μg/ml, FIG. 4C); “hampered” in experiment [1] (all aneuploid strains, FIG. 4C). For the same molecule, the “sensitivity of cdc28-4 and cdc23-1 mutants” value in experiment [3] is reported as “did not exhibit increased sensitivity”.

For the molecule `O=C(O)C1CCN1` (stereo not drawn) [azetidine 2-carboxylic acid], in experiment [1], the “colony formation of aneuploids on medium containing the agent” value (shortened to “colony formation of aneuploids”) was “formed colonies as well as wild-type cells”. Take `NC(=O)NO` [hydroxyurea]: the “colony formation of aneuploids” value in experiment [1] is “formed colonies as well as wild-type cells”. As to `O=c1cn[nH]c(=O)[nH]1` [6-Azauracil], the “colony formation of aneuploids” value in experiment [1] is “formed colonies as well as wild-type cells”. For the molecule `OO` [hydrogen peroxide], the “proliferation of aneuploids in the presence of the agent” value in experiment [1] (1 mM, FIG. 13D, G) is on record as “None of the aneuploids showed altered proliferation”. As for `CC(=O)Nc1c2sscc-2n(C)c1=O` [Thiolutin], the “sensitivity of YAC-bearing strains” value in experiment [2] is given as “did not exhibit increased sensitivity”. In addition, the proliferation of aneuploids entry is given as “inhibited” in experiment [1] (high concentration 20 μg/ml, all aneuploids except disomes I, X, XIV, FIG. 4B) and “proliferation of only a subset of strains was impaired” in experiment [1] (low concentrations 5 μg/ml to 15 μg/ml, FIG. 13H).

For `CC(C)C[C@@H](C=O)NC(=O)[C@H](CC(C)C)NC(=O)[C@H](CC(C)C)NC(=O)OCc1ccccc1` [MG 132] (Cbz-Leu-Leu-Leu-aldehyde), the “proliferation of aneuploid strains (ability to form colonies on plates containing the drug)” value in experiment [1] (disomes IV, XII, XIII, XIV and XVI, PDR5 deleted, concentrations that wild-type cells grow at, FIG. 4F) was “inhibited”.
